Measurements from patent US11136301B2, “Broad spectrum antiviral compounds and uses thereof” (The Regents Of The University Of California, priority 2015, dated 2021).
“Also recorded” adds a separate entry of the source. Structures can show the parent of a compound that is named as a salt. Where two headings read alike, the source gives them in different places.

Tests used:
[1] = test system: wild-type HIV-1 (HIV-1LAI) in H9 cells (non-permissive); experiment: microbe, parasite or virus in culture; assay type: cell-based; settings: for viral replication (reverse transcriptase activity in supernatants): H9 cells, HIV-1LAI, up to 50 μM, 15 days
[2] = test system: wild-type HIV-1 (HIV-1LAI) in MT-4 cells (permissive); experiment: Antiviral activity assay: wild-type HIV-1 in permissive MT4 cells, reverse transcriptase activity in culture supernatants; assay type: cell-based; settings: for viral replication (reverse transcriptase activity in supernatants): MT4 cells, HIV-1LAI, 15 days
[3] = test system: HA-tagged A3G and GFP-tagged Vif or ΔVif in 293FT cells; experiment: Immunoblot of A3G and Vif levels in transfected 293FT cells; settings: 16 h; for A3G levels / Vif expression: 293FT cells, HA-A3G and GFP-Vif, 50 μM
Zika virus = experiment: Zika viral replication inhibition; assay type: cell-based; settings: FIG. 20
[4] = test system: Vif-A3G-HSP90-Cul5-CBF-β E3 ligase complex; experiment: Immunoprecipitation of IMA82-interacting proteins / E3 ligase complex; assay type: cell-based; settings: 293FT cells transfected with FLAG-HSP90 and HA-A3G, 16 h
Experimental: Cells were washed twice with PBS and lysed in IP lysis buffer (Thermo) or in a buffer composed of 50 mM Tris-HCl (pH 7.2), 150 mM NaCl, 1% NP-40, 10% glycerol, and protease inhibitor cocktail. Cell lysates ([…]) were incubated with 5 μl of rat anti-HA (Roche), rabbit anti-GFP (Cell Signaling), mouse anti-Hsp90 (Millipore), or rabbit anti-Cul5 (Sigma) plus 30 μl of protein A or G DYNABEADS® (Invitrogen) and rotated at RT for 2 h. The beads were washed three times with PBS containing 0.05% Tween 20. Each lysate was immunoprecipitated in triplicate and the beads were combined. Immune complexes were eluted by boiling in 5×SDS sample buffer. The proteins were separated by SDS-PAGE and analyzed by immunoblotting with antibodies to HA (A3G), GFP (Vif), Hsp90, Cul5, and CBF-β, as described above.

[5] = test system: polyubiquitination of A3G and Vif; experiment: Ubiquitination assay in 293FT cells; assay type: cell-based
Experimental: Cells were incubated with or without 10 μM of IMA82, IMD55, or IMD64 for 16 h, and then with or without 10 μM of the calpain inhibitor ALLN for 4 h. The cells were washed once with PBS and lysed. Samples of 200 μg protein were immunoprecipitated by the addition of rat anti-HA (Roche) or mouse anti-GFP (Wako) antibodies (7 μg) and 50 μl protein G DYNABEADS® (Invitrogen) and rotated at RT for 2 h. The beads were washed three times with PBS containing 0.05% Tween 20 and boiled in 5×SDS sample buffer. The denatured proteins were resolved and electroblotted onto PVDF membranes. The membranes were probed with rabbit anti-ubiquitin, rabbit anti-HA, or rabbit anti-GFP antibodies, as described above.

[6] = test system: A3G, Vif, p24, HSP90 in HIV-1LAI-infected H9 and MT4 cells; experiment: Protein analysis (immunoblot) of HIV-1 infected H9 and MT4 cells; assay type: cell-based
Experimental: Non-permissive (H9) and permissive (MT4) cells were treated with 1% DMSO, IMA82, or 17-DMAG overnight and then infected with HIV-1LAI for 5 h. Cells were washed three times with PBS and cultured in medium for 72 h in the presence of the same concentrations of DMSO, IMA82, or 17-DMAG. Total cell lysates were prepared with M-PER buffer containing 0.5% Triton X-100, 150 mM NaCl, 5 mM EDTA, and protease inhibitor cocktail. Protein concentrations were determined with the DC protein assay kit (Bio-Rad). Immunoblotting was performed as described above.

HSP90 = experiment: ViTAP (Vif inhibitor Target Affinity Purification): streptavidin affinity purification of compound-bound proteins; assay type: binding; settings: transfected 293FT cells, streptavidin affinity purification
[7] = Human immunodeficiency virus 1, H9, read-out: Antiviral activity (IC50 μM) H9 cells, Table 1, wild-type HIV-1, non-permissive H9 cells
[8] = Human immunodeficiency virus 1, H9, read-out: Antiviral activity (IC50 μM) H9 cells, Table 3, wild-type HIV-1, non-permissive H9 cells
[9] = Human immunodeficiency virus 1, H9, read-out: Antiviral activity (IC50 μM) H9 cells, Table 6, wild-type HIV-1, non-permissive H9 cells
[10] = Human immunodeficiency virus 1, H9, read-out: IC50, anti-HIV-1 activity, non-permissive H9 cells
[11] = Human immunodeficiency virus 1, MT4, Table 1, wild-type HIV-1, permissive MT4 cells, read-out: Antiviral activity (IC50 μM) MT4 cells
[12] = Human immunodeficiency virus 1, MT4, Table 3, wild-type HIV-1, permissive MT4 cells, read-out: Antiviral activity (IC50 μM) MT4 cells
[13] = Human immunodeficiency virus 1, MT4, Table 6, wild-type HIV-1, permissive MT4 cells, read-out: Antiviral activity (IC50 μM) MT4 cells
[14] = Human immunodeficiency virus 1, MT4, text, permissive MT4 cells, read-out: IC50, non-specific antiviral activity in permissive cells
[15] = Human immunodeficiency virus 1, H9, read-out: Antiviral activity (IC50 μM) H9 cells, wild-type HIV-1 (HIV-1LAI), H9 cells (non-permissive), RT activity in culture supernatants, compounds 1 to 50 μM
[16] = 293FT cells expressing HA-A3G and GFP-Vif, 10 μM, ALLN

| Compound | melting point | IC50 [1, 7] | IC50 [1, 8] | IC50 [1, 10] | IC50 [2, 11] | IC50 [2, 12] | A3G levels [3] | Vif expression [3] | viral replication (reverse transcriptase activity in supernatants) [1] | co-purification of HSP90 (90 kDa protein) with the compound (HSP90) | other results |
| --- | --- | --- | --- | --- | --- | --- | --- | --- | --- | --- | --- |
| COc1ccccc1-n1cc(-c2ccccc2S(=O)(=O)c2ccc(C(=O)O)cc2)nn1 (as salt: salt) [Compound 2gy, 2-Hydroxy-N,N,N-trimethylethanaminium 4-((2-(1-(2-methoxyphenyl)-1H-1,2,3-triazol-4-yl)phenyl)sulfonyl)benzoate] | 93 °C |  |  |  |  |  |  |  |  |  |  |
| COc1ccccc1-c1nnc(-c2ccccc2Sc2ccc([N+](=O)[O-])cc2)o1 [Compound 1b, 2-(2-Methoxyphenyl)-5-(2-((4-nitrophenyl)thio)phenyl)-1,3,4-oxadiazole] | 128 to 130 °C | 6.8 µM | 6.8 µM | 6.8 µM | 50 µM | 50 µM | up-regulation of A3G; also recorded: restoring A3G levels | downregulation of Vif; also recorded: down-regulated Vif expression |  |  | IC50 [1, 9]: 6.8 µM; IC50 [2, 13]: 50 µM; IC50 [2, 14]: 50 µM |
| COc1ccccc1-c1noc(-c2ccccc2Sc2ccc([N+](=O)[O-])cc2)n1 [Compound 1c, 3-(2-Methoxyphenyl)-5-(2-((4-nitrophenyl)thio)phenyl)-1,2,4-oxadiazole] | 138 °C | 6.8 µM | 6.8 µM | 6.8 µM | > 50 µM | > 50 µM | up-regulation of A3G; also recorded: restoring A3G levels | downregulation of Vif; also recorded: down-regulated Vif expression |  |  |  |
| COc1ccccc1-n1cc(-c2ccccc2Sc2ccc([N+](=O)[O-])cc2)nn1 [Compound 1d, 1-(2-Methoxyphenyl)-4-(2-((4-nitrophenyl)thio)phenyl)-1H-1,2,3-triazole] | 149 to 151 °C | 1.2 µM | 1.2 µM | 1.2 µM | > 50 µM | > 50 µM | up-regulation of A3G; also recorded: restoring A3G levels | downregulation of Vif; also recorded: down-regulated Vif expression |  |  | IC50 [1, 9]: 1.2 µM; IC50 [1, 15]: 1.2 µM; IC50 [2, 13]: > 50 µM; IC50 ([2]; Human immunodeficiency virus 1, MT4, wild-type HIV-1 (HIV-1LAI), MT4 cells (permissive), RT activity in culture supernatants, compounds 1 to 50 μM, read-out: Antiviral activity (IC50 μM) MT4 cells): > 50 µM; antiviral activity in MT4 cells (specificity) ([2]; permissive MT4 cells, up to 50 μM): no activity |
| COc1ccccc1-n1nncc1-c1ccccc1Sc1ccc([N+](=O)[O-])cc1 [Compound 1e, 1-(2-Methoxyphenyl)-5-(2-((4-nitrophenyl)thio)phenyl)-1H-1,2,3-triazole] | 139 to 141 °C | 15 µM | 15 µM | 15 µM | 25 µM | 25 µM | up-regulation of A3G; also recorded: restoring A3G levels | downregulation of Vif; also recorded: down-regulated Vif expression |  |  | IC50 [2, 14]: 25 µM |
| COC(=O)c1ccc(Sc2ccccc2-c2cn(-c3c(OC)cccc3OC)nn2)cc1 [Compound 6bx, Methyl 4-((2-(1-(2,6-dimethoxyphenyl)-1H-1,2,3-triazol-4-yl)phenyl)thio)benzoate] |  |  |  | 0.2 µM |  |  |  |  |  |  | IC50 ([1]; Human immunodeficiency virus 1, H9, read-out: Antiviral activity (IC50 μM) H9 Cells, Table 4, wild-type HIV-1, non-permissive H9 cells): 0.2 µM; IC50 ([1]; Human immunodeficiency virus 1, H9, read-out: Antiviral activity (IC50 μM) H9 Cells, Table 7, wild-type HIV-1, non-permissive H9 cells): 0.2 µM; IC50 ([1]; Human immunodeficiency virus 1, H9, read-out: Antiviral activity (IC50 μM) H9 cells, Table 5, wild-type HIV-1, non-permissive H9 cells): 0.2 µM; IC50 ([1]; Human immunodeficiency virus 1, H9, read-out: Antiviral activity (IC50 μM) H9 cells, Table 8, wild-type HIV-1, non-permissive H9 cells): 0.2 µM; IC50 [1, 15]: 0.2 µM; Zika viral replication (Zika virus): Zika viral replication inhibition |
| C=CCNC1=C2C[C@@H](C)C[C@H](OC)[C@H](O)[C@@H](C)/C=C(\C)[C@H](OC(N)=O)[C@@H](OC)/C=C\C=C(/C)C(=O)NC(=CC1=O)C2=O [Compound 17-AAG, 17-N-Allylamino-17-demethoxygeldanamycin, reference compound] |  |  |  |  |  |  |  |  |  |  | HSP90-A3G interaction, FLAG-HSP90 affinity purification [4]: remained in complexes with A3G; A3G ubiquitination ([5]; 293FT-A3G-ΔVif cells (lacking Vif)): ubiquitinated; A3G expression ([3]; 293FT cells co-expressing HA-A3G and Vif or ΔVif): dose-dependently decreased A3G expression; Vif expression / degradation ([3]; 293FT cells co-expressing HA-A3G and Vif): unaffected; HSP90 expression ([3]; transfected 293FT cells): no effect on HSP90 levels; A3G levels ([6]; HIV-1-infected H9 cells): dose-dependently decreased the expression of A3G; Vif levels ([6]; HIV-1-infected H9 cells): without affecting Vif expression; A3G expression ([6]; uninfected H9 cells, 16 h): decreased |
| COc1cc(C(=O)NCCOCCOCCOCCNC(=O)CCCCC2SCC3NC(=O)NC32)ccc1NC(=O)c1ccccc1Sc1ccc([N+](=O)[O-])cc1 (stereo not shown) [IMD40, 3-methoxy-4-(2-((4-nitrophenyl)thio)benzamido)-N-(13-oxo-17-(2-oxohexahydro-1H-thieno[3,4-d]imidazol-4-yl)-3,6,9-trioxa-12-azaheptadecyl)benzamide] |  |  |  |  |  |  |  |  | dose-dependently inhibited viral replication | binds HSP90; also recorded: purified a specific 90 kDa protein |  |
| COc1ccccc1C(=O)NCCOCCOCCOCCNC(=O)CCCCC1SCC2NC(=O)NC21 (stereo not shown) [IMD41, 2-methoxy-N-(13-oxo-17-(2-oxohexahydro-1H-thieno[3,4-d]imidazol-4-yl)-3,6,9-trioxa-12-azaheptadecyl)benzamide] |  |  |  |  |  |  |  |  | no effect on viral replication | did not co-purify | viral replication (reverse transcriptase activity in supernatants) ([2]; up to 50 μM): no effect on viral replication |
| COc1cc(C(=O)NCCOCCOCCOCCNC(=O)CCCCC2SCC3NC(=O)NC32)ccc1NC(=O)c1ccc(N=[N+]=[N-])cc1Sc1ccc([N+](=O)[O-])cc1 (stereo not shown) [IMD55, 4-azido-N-(2-methoxy-4-((13-oxo-17-(2-oxohexahydro-1H-thieno[3,4-d]imidazol-4-yl)-3,6,9-trioxa-12-azaheptadecyl)carbamoyl)phenyl)-2-((4-nitrophenyl)thio)benzamide] |  |  |  |  |  |  |  |  | dose-dependently inhibited viral replication | co-purified; also recorded: specifically co-purify | A3G ubiquitination [5, 16]: not observed; Vif ubiquitination [5, 16]: ubiquitinated |
| [N-]=[N+]=Nc1ccc(C(=O)NCCOCCOCCOCCNC(=O)CCCCC2SCC3NC(=O)NC32)cc1 (stereo not shown) [IMD64, 4-Azido-N-(13-oxo-17-(2-oxohexahydro-1H-thieno[3,4-d]imidazol-4-yl)-3,6,9-trioxa-12-azaheptadecyl)benzamide] |  |  |  |  |  |  |  |  | no effect on viral replication | did not associate | viral replication (reverse transcriptase activity in supernatants) ([2]; up to 50 μM): no effect on viral replication; A3G ubiquitination [5, 16]: extensively ubiquitinated |
